Here are results for 1 compound from patent publication US12016843B2, “Compositions and methods for the treatment of amyotrophic lateral sclerosis, parkinson's disease, parkinson's disease with dementia, dementia with lewy bodies, and multiple system atrophy” (priority 2019, dated 2024).

SMILES strings stand for the structures.

For data set [1], the system named is SOD1 G93A high copy transgenic mice. In words: Lifespan (survival to humane end of life) in SOD1 G93A mouse model of ALS. Format: in vivo. The conditions noted are these: vs vehicle control. The protocol:
Study Design. Three experimental groups of n=20 (10 male, 10 female) SOD1 G93A high copy transgenic mice were dosed daily via intraperitoneal administration of vehicle control; (R)-2-amino-N—((S)-1-(((S)-5-amino-1-(3-benzyl-1,2,4-oxadiazol-5-yl)pentyl)amino)-3-(4-hydroxy-2,6-dimethylphenyl)-1-oxopropan-2-yl)-5-guanidinopentanamide (as its tris-HCl salt-(Ia)) at 0.5 mg/kg; or (R)-2-amino-N—((S)-1-(((S)-5-amino-1-(3-benzyl-1,2,4-oxadiazol-5-yl)pentyl)amino)-3-(4-hydroxy-2,6-dimethylphenyl)-1-oxopropan-2-yl)-5-guanidinopentanamide (as its tris-HCl salt—(Ia)) at 5.0 mg/kg. Animals were dosed beginning at 8 weeks of age and dosing was continued until humane end of life (defined by the inability of animal to right itself from either side within 30 seconds when placed on its side). Experimental endpoints and in-life collections and observations were as follows: • 1. Bodyweight measurement. Daily recording of weight. • 2. Neurological scoring. Weekly NeuroScore, a qualitative assessment of neurological disease progression based upon a five-point grading system. […] The average force in grams of the 3 forepaw and 3 all-paws trials are analyzed with and without normalization to body weight. • 4. […]

Data set [2] shares this test system. In words: Forelimb grip strength test in SOD1 G93A mouse model of ALS. Format: in vivo. To be noted: 10 weeks on drug; for grip strength Mean Diff. (Dunnett's multiple comparisons test, Vehicle vs. 0.5 mg/kg): 0.5 mg/kg daily ip; for grip strength Mean Diff. (Dunnett's multiple comparisons test, Vehicle vs. 5.0 mg/kg): 5.0 mg/kg daily ip. The protocol:
Study Design. Three experimental groups of n=20 (10 male, 10 female) SOD1 G93A high copy transgenic mice were dosed daily via intraperitoneal administration of vehicle control; (R)-2-amino-N—((S)-1-(((S)-5-amino-1-(3-benzyl-1,2,4-oxadiazol-5-yl)pentyl)amino)-3-(4-hydroxy-2,6-dimethylphenyl)-1-oxopropan-2-yl)-5-guanidinopentanamide (as its tris-HCl salt-(Ia)) at 0.5 mg/kg; or (R)-2-amino-N—((S)-1-(((S)-5-amino-1-(3-benzyl-1,2,4-oxadiazol-5-yl)pentyl)amino)-3-(4-hydroxy-2,6-dimethylphenyl)-1-oxopropan-2-yl)-5-guanidinopentanamide (as its tris-HCl salt—(Ia)) at 5.0 mg/kg. Animals were dosed beginning at 8 weeks of age and dosing was continued until humane end of life (defined by the inability of animal to right itself from either side within 30 seconds when placed on its side). Experimental endpoints and in-life collections and observations were as follows: • 1. Bodyweight measurement. Daily recording of weight. • 2. Neurological scoring. Weekly NeuroScore, a qualitative assessment of neurological disease progression based upon a five-point grading system. Scoring is defined as follows: • Score 0: Full extension of hind legs away from the lateral midline when the mouse is suspended by its tail, and the mouse can hold this extension for 2 seconds, being suspended 3 times consecutively. • Score 1: Collapse or partial collapse of the leg extension toward the lateral midline or trembling of hind legs during the tail suspension. • Score 2: Toes curl under at least twice during walking of 12 inches, or any part of the foot is dragging along the cage bottom or table. • Score 3: Rigid paralysis or minimal joint movement, the foot is not being used for forward motion. • Score 4: The mouse cannot right itself within 30 sec from either side. • 3. Grip strength test. Weekly forelimb grip strength, performed as follows: • a. Subjects are weighed and acclimated to the testing room for at least 60 min. • b. Equipment: Bioseb grip strength meter equipped with a grid for grasping that is suited for mice. • c. Mice are lowered towards the grid by their tails to allow for visual placing and for the mouse to grip the grid with their forepaws. • d. Subjects are firmly pulled horizontally away from the grid (parallel to the bench) for 3 consecutive trials with a brief (approximately 30 sec) rest period on the bench between trials. • e. The average force in grams of the 3 forepaw and 3 all-paws trials are analyzed with and without normalization to body weight. • 4. Retro-orbital blood collection. Bi-weekly retroorbital eye bleeds to determine drug exposure levels as well as levels of neurofilament light chain, a biomarker of axonal damage shown to correlate with ALS disease progression in human patients. Briefly, mice are sedated with isoflurane (5% induction, 2% maintenance) in O2. […]
Systemic administration of (R)-2-amino-N—((S)-1-(((S)-5-amino-1-(3-benzyl-1,2,4-oxadiazol-5-yl)pentypamino)-3-(4-hydroxy-2,6-dimethylphenyl)-1-oxopropan-2-yl)-5-guanidinopentanamide attenuates decline in muscle strength in ALS mouse model. As shown in FIG. 2A and Table 1A, systemic administration of (R)-2-amino-N—((S)-1-(((S)-5-amino-1-(3-benzyl-1,2,4-oxadiazol-5-yl)pentyl)amino)-3-(4-hydroxy-2,6-dimethylphenyl)-1-oxopropan-2-yl)-5-guanidinopentanamide (as its tris-HCl salt—(Ia)) attenuates the loss of grip strength in male SOD1 G93A transgenic mice. Grip strength values were determined at baseline (week 8) and through end of life for each animal. […]

The nature of data set [3]: Drug levels in whole brain homogenate by LC-MS/MS after subcutaneous injection. Format: in vivo. The conditions noted are these: Sprague Dawley rats, 5 mg/kg subcutaneous, over 36 hours, compared with elamipretide. The procedure:
Sprague Dawley rats were injected subcutaneously with 5 mg/kg of Compound Ia or elamipretide (n=4 per time-point). Animals were sacrificed at the indicated timepoints and transcardial perfusion was performed. Drug levels in whole brain homogenate were determined by LC-MS/MS.

Data set [4] has as its system mitochondrial respiration in brain homogenate from the infarcted area. In words: Mitochondrial respiration (respiratory control ratio) in brain homogenate after endothelin-1 induced ischemic stroke. To be noted: rats, ET-1 middle cerebral artery occlusion, 5 mg/kg sc at 24 and 4 hours prior to ischemia, measured 24 hours after onset. Format: in vivo, Sprague Dawley rats. The protocol: Ischemic stroke was induced in Sprague Dawley rats via middle cerebral artery occlusion with the vasoconstrictive peptide endothelin-1 (ET-1; 240 pmol per injection). Compound Ia was administered to each rat at 24 and 4 hours prior to onset of ischemia via subcutaneous injection at 5 mg/kg. Mitochondrial respiration was measured in brain homogenate excised from the infarcted area 24 hours following the onset of ischemia using high resolution respirometry (OxyGraph 02K). Respiratory control ratio was calculated as complex I supported oxidative phosphorylation divided by Complex I linked leak respiration. Results are illustrated in FIG. 5B, ** p<0.01, one-way ANOVA.

Turning to `Cc1cc(O)cc(C)c1C[C@H](NC(=O)[C@H](N)CCCNC(=N)N)C(=O)N[C@@H](CCCCN)c1nc(Cc2ccccc2)no1.Cl.Cl.Cl` [Compound Ia, (R)-2-amino-N—((S)-1-(((S)-5-amino-1-(3-benzyl-1,2,4-oxadiazol-5-yl)pentyl)amino)-3-(4-hydroxy-2,6-dimethylphenyl)-1-oxopropan-2-yl)-5-guanidinopentanamide·3HCl], the lifespan result is reported as “no effects” in data set [1] (female SOD1 G93A mice, daily intraperitoneal) and “significantly increased” in data set [1] (male SOD1 G93A mice, 5.0 mg/kg daily intraperitoneal). For the same compound, the “grip strength Mean Diff. (Dunnett's multiple comparisons test, Vehicle vs. 0.5 mg/kg)” value in data set [2] (female SOD1 G93A mice) is listed as −6.081; in data set [2] (male SOD1 G93A mice), −0.7940. The “grip strength Mean Diff. (Dunnett's multiple comparisons test, Vehicle vs. 5.0 mg/kg)” value in data set [2] (female SOD1 G93A mice) is on record as −7.905; in data set [2] (male SOD1 G93A mice), −11.90. Besides, in data set [2] (male SOD1 G93A mice, 5.0 mg/kg, p=0.08), the “loss of grip strength” value is given as “trend in protection from loss of grip strength”. Besides, the “brain exposure (drug levels in whole brain homogenate)” value in data set [3] is “higher than that of elamipretide”. Also, the “mitochondrial respiration in brain (respiratory control ratio)” value in data set [4] is “restored mitochondrial respiration in brain”.
